{
  "source": "patent US9056844B2",
  "about": "“4-substituted-3-benzyloxy-bicyclo[3.1.0]hexane compounds as mGluR 2/3 antagonists” (Eli Lilly and Company, priority 2010, dated 2015)",
  "type_in_all_cases": "cell-based",
  "key": {"human mGlu4 receptor": {"target": "T1, human mGlu4 receptor (Homo sapiens, UniProt Q14833)", "T1 construct": "expressed in transfected cells; host or cells: AV12 cells, co-expressing rat EAAT1 and Galpha15", "T1 sequence (Q14833 33-912)": "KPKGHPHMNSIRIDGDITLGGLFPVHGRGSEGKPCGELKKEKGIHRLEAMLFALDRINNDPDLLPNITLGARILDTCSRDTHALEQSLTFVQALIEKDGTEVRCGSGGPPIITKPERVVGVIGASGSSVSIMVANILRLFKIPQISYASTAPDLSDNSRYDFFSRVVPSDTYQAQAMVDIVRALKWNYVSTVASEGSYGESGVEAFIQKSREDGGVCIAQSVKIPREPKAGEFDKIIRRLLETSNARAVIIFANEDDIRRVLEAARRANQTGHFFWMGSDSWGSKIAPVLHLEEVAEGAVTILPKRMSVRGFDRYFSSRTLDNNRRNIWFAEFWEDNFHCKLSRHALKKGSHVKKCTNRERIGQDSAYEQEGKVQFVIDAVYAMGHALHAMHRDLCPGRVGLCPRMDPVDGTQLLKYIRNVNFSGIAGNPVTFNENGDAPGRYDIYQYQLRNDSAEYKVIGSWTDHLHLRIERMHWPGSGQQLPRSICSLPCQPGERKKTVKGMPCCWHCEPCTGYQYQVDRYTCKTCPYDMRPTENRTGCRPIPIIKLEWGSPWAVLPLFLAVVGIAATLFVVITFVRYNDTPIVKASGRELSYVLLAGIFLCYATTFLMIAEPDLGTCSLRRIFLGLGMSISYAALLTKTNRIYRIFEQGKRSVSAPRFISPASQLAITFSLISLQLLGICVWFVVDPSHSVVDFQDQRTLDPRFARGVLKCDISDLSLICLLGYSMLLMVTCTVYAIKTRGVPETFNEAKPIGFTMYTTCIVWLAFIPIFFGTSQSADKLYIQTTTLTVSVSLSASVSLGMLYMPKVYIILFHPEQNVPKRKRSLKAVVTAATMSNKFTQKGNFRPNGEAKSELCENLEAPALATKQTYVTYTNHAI", "test": "FLIPR calcium assay for mGlu receptor selectivity, mGlu4 antagonist mode", "details": "inhibition of EC90 glutamate response, read-out: mGlu4 % inhib. @12.5 μM", "source_text": "(§1) FLIPR and cAMP Assays for mGlu Receptor Selectivity\n(§2) The relative antagonist potencies of the compounds of the invention for the other human mGlu receptors can be assessed with either a cAMP assay or fluorometric calcium response assay (see for example Fell et al., JPET (in press)). Briefly, individual AV12 cell lines containing the rat EAAT1 glutamate transporter and stably expressing the human mGlu1, 2, 3, 4, 5, 6, & 8 receptors are used for these studies. The mGlu1 and 5 receptors are […], so they naturally signal through phospholipase C, producing a calcium flux response which can be used to measure receptor activation using a Fluorometric Imaging Plate Reader (FLIPR, Molecular Devices). The cell lines expressing the mGlu2, 3, 4, and 8 receptor are designed to express the Gα15 subunit so that these Gi-coupled receptors will generate a calcium flux response similar to the mGlu1 and 5 receptor expressing cell lines. The mGlu6 receptor is tested in a cAMP format using methods analogous to those developed for mGlu2 and mGlu3 above. These cell lines are maintained as previously described except that amounts of L-glutamine and selection agents (geneticin, hygromycin B, zeocin, and blasticidin) may vary depending on the cell line. Confluent cultures are passaged biweekly.\n(§3) Intracellular calcium levels are monitored using FLIPR before and after the addition of test compounds and Fluo-3 AM (Invitrogen) or Calcium 4 (Molecular Devices) dye, depending on the cell line. Cells are plated 24 hours prior to assay in a variable concentration of glutamine and a variable density of cells per well, depending on the cell line. The medium is removed and the cells are incubated with 8 μM of dye (50 μl per well) for 90 or 120 minutes (depending on cell line) at 25° C. A single-addition FLIPR assay generating an 11-point concentration response curve for the agonist glutamate is conducted prior to each experiment to confirm the appropriate sensitivity of the cells. The results are analyzed using GraphPad Prism v4.03 to calculate the concentrations of glutamate needed to induce the EC90 (antagonist assay) and EC10 (potentiator assay) responses.\n(§4) Compounds are tested at each mGlu receptor in a two-addition FLIPR assay using a 10-point concentration response profile starting at a final concentration of 25 μM for the agonist assay and 12.5 μM for the potentiator and antagonist assays. The first addition detects any agonist activity, and the second addition consists of 100 μl of select concentrations (depending on cell line) of glutamate in assay buffer generating an EC10 or EC90 glutamate response. Agonist effects are quantified as percent stimulation induced by compound alone relative to the maximal glutamate response. Antagonist effects are quantified by calculating the percent inhibition of the EC90 glutamate response caused by the compound. Potentiation effects are quantified as percent increase in the presence of an EC10 response in glutamate relative to the ECmax response. All data are calculated as relative IC50 or EC50 values using a four-parameter logistic curve fitting program (ActivityBase v5.3.1.22)."}, "human mGlu1 receptor": {"target": "T2, human mGlu1 receptor (Homo sapiens, UniProt Q13255)", "T2 construct": "expressed in transfected cells; host or cells: AV12 cells, co-expressing rat EAAT1", "T2 sequence (Q13255 19-1194)": "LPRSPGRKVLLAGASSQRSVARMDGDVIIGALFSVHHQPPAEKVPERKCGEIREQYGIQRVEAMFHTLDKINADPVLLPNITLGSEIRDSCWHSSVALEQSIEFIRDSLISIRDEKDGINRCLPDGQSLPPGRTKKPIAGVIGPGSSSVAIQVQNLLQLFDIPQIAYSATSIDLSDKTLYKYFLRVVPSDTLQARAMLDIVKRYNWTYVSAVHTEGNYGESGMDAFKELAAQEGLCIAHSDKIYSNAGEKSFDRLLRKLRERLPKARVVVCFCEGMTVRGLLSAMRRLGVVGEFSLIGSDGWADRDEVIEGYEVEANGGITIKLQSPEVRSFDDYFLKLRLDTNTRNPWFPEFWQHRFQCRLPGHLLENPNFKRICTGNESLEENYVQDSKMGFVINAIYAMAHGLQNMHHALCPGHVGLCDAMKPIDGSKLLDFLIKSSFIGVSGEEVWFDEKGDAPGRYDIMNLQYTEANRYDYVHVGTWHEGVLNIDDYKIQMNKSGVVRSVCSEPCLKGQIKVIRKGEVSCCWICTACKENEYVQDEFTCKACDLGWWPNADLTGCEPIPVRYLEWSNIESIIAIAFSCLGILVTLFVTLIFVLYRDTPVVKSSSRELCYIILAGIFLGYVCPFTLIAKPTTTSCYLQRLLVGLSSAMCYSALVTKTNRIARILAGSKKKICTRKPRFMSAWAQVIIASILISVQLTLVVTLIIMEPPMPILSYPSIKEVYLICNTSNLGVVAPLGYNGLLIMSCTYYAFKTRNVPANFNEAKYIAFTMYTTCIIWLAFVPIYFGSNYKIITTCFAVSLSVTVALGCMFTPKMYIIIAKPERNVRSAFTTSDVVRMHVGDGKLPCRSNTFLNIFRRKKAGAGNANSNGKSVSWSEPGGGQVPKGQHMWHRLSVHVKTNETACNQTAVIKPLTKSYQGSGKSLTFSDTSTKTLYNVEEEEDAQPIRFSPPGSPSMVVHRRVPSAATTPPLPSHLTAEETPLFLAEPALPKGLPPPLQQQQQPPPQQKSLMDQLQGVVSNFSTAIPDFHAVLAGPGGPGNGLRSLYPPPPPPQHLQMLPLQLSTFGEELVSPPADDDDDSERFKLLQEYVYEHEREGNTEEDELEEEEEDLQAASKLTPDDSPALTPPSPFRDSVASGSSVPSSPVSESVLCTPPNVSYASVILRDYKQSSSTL", "test": "FLIPR calcium assay for mGlu receptor selectivity, mGlu1 antagonist mode", "details": "inhibition of EC90 glutamate response, read-out: mGlu1 % inhib. @12.5 μM", "source_text": "as §1, §2, §3, §4"}, "human mGlu3 receptors": {"target": "T3, human mGlu3 receptors (Homo sapiens, UniProt Q14832)", "T3 construct": "expressed in transfected cells; host or cells: AV12 cells, co-expressing rat EAAT1", "T3 sequence (Q14832 23-879)": "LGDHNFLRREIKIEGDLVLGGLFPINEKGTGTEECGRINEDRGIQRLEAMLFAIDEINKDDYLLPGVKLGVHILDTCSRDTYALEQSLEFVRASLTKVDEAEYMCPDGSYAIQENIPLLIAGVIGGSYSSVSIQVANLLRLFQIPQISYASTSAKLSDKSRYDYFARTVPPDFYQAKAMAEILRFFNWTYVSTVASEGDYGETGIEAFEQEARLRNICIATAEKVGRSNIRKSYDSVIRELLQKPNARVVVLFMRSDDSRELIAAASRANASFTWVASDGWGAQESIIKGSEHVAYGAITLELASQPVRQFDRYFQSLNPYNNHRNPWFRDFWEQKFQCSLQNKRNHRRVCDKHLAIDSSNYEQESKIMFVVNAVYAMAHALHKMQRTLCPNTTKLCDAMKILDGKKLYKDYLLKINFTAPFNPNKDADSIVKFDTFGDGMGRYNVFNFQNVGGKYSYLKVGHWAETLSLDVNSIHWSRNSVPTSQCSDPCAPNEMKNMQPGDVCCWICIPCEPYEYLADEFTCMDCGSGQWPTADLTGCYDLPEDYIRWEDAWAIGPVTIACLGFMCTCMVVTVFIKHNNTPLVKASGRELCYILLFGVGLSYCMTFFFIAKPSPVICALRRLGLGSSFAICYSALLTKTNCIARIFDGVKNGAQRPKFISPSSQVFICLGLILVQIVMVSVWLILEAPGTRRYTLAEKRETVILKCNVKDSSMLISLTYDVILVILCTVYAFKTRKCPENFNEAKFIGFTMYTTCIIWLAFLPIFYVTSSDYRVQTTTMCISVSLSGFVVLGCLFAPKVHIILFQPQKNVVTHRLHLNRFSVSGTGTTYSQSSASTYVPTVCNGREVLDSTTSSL", "test": "mGlu3 receptor cAMP antagonist assay", "details": "reversal of DCG IV (EC90) inhibition of forskolin-stimulated cAMP; AV12 cells", "method": "mGlu2 and mGlu3 Receptor cAMP Antagonist Assays\nAntagonist activity is assayed in recombinant AV12 cells stably expressing human mGlu2 or mGlu3 receptors and the rat glutamate transporter EAAT1 (Excitatory Amino Acid Transporter 1). The cell lines are maintained by culturing in DMEM with high glucose and pyridoxine hydrochloride supplemented with 5% dialyzed fetal bovine serum (FBS), 1 mM sodium pyruvate, 1 mM HEPES and 1 mM L-glutamine; geneticin and hygromycin B are used as selection antibiotics. Confluent cultures are grown at 37° C. in an atmosphere containing 6.5% CO2, and passaged biweekly. Cells are harvested using 0.25% trypsin, suspended in freeze media (FBS with 10% DMSO) at 10^7 cells/ml, and aliquots are stored in liquid nitrogen. Twenty-four hours before the assay, cells are plated at a density of 8,000-10,000 cells per well in a tissue culture treated, 96-well, half-area black plates (Costar 3875) in 50 μl of DMEM with high glucose and pyridoxine hydrochloride supplemented with 5% dialyzed FBS, 1 mM sodium pyruvate, 1 mM HEPES, 100 μg/ml ampicillin, and 250 μM (mGlu2) or 125 μM (mGlu3) of L-glutamine.\nReversal of the inhibition of forskolin-stimulated cAMP production by test compounds is measured using homogeneous time resolved fluorescence technology (HTRF; Cisbio cat #62AM4PEB). The medium is removed and the cells are incubated with 100 μl cAMP stimulation buffer (STIM) for 30 minutes at 37° C. (STIM buffer contains 500 ml HBSS, 1000 ml DPBS, 0.034% BSA, 1.67 mM HEPES and 500 μM IBMX (Sigma 15879).) Compounds are tested in 10-point concentration response curves using 3× serial dilution followed by further 40-fold dilution into STIM buffer. DCG IV (Tocris 0975) serves as the reference agonist. The final reaction mixture contains 1 μM (for mGlu2) or 3 μM (for mGlu3) of forskolin (Sigma F6886), DCG IV at its EC90, and up to 25 μM of test compound. Cells are incubated at 37° C. for 20 minutes. To measure the cAMP levels, cAMP-d2 conjugate and anti cAMP-cryptate conjugate in lysis buffer are incubated with the treated cells at room temperature for 1 hour (mGlu2) or 1.5 hour (mGlu3). The HTRF signal is detected using an EnVision plate reader (Perkin-Elmer) to calculate the ratio of fluorescence at […]. The raw data are converted to cAMP amount (pmole/well) using a cAMP standard curve generated for each experiment. Relative IC50 values are calculated from the top-bottom range of the concentration response curve using a four-parameter logistic curve fitting program (ActivityBase v5.3.1.22)."}, "human mGlu8 receptor": {"target": "T4, human mGlu8 receptor (Homo sapiens, UniProt O00222)", "T4 construct": "expressed in transfected cells; host or cells: AV12 cells, co-expressing rat EAAT1 and Galpha15", "T4 sequence (O00222 34-908)": "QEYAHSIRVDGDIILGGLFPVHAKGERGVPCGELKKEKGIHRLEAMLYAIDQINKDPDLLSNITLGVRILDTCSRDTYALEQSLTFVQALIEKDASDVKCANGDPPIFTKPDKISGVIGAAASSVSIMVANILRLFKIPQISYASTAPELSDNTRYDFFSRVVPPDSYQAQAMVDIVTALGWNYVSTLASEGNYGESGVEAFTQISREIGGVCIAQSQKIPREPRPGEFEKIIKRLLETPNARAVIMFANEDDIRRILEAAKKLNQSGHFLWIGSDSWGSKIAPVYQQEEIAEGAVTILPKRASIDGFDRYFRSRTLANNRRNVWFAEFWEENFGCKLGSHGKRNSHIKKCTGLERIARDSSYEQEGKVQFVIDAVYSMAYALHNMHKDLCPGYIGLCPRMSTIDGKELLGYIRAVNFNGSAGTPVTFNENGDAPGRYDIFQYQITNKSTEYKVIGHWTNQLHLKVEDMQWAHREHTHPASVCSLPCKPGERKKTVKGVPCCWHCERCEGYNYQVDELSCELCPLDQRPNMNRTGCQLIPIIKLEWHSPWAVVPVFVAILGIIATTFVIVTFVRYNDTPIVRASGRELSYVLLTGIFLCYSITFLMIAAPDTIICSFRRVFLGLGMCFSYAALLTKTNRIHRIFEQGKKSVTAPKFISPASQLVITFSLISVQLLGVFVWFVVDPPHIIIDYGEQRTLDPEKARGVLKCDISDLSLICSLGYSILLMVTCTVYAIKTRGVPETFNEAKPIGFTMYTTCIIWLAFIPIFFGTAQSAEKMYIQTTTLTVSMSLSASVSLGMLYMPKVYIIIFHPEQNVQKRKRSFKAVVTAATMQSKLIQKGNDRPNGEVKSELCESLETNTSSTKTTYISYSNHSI", "test": "FLIPR calcium assay for mGlu receptor selectivity, mGlu8 antagonist mode", "details": "for inhibition at 12.5 µM: inhibition of EC90 glutamate response, read-out: mGlu8 % inhib. @12.5 μM; for IC50: printed in brackets below the % inhib. value", "source_text": "as §1, §2, §3, §4"}},
  "data": [
    {"smiles": "N[C@]1(C(=O)O)[C@@H]2[C@@H](C(=O)O)[C@@H]2[C@H](O)[C@H]1OCc1ccc(Cl)c(Cl)c1", "note": "[Example 1, (1S,2R,3S,4S,5R,6R)-2-Amino-3-[(3,4-dichlorobenzyl)oxy]-4-hydroxybicyclo[3.1.0]hexane-2,6-dicarboxylic acid]", "values": [
      {"measurement": "inhibition at 12.5 µM", "setting": "human mGlu4 receptor", "value": 28.5, "unit": "%"},
      {"measurement": "inhibition at 12.5 µM", "setting": "human mGlu1 receptor", "value": -0.47, "unit": "%"},
      {"measurement": "IC50", "setting": "human mGlu3 receptors", "value": "27.2 ± 4.2", "unit": "nM"},
      {"measurement": "inhibition at 12.5 µM", "setting": "human mGlu8 receptor", "value": 78.4, "unit": "%"},
      {"measurement": "IC50", "setting": "human mGlu8 receptor", "value": 1900, "unit": "nM"}
    ]},
    {"smiles": "N[C@]1(C(=O)O)[C@@H]2[C@@H](C(=O)O)[C@@H]2[C@H](Sc2nc[nH]n2)[C@H]1OCc1ccc(Cl)c(Cl)c1", "note": "[Example 2, (1R,2R,3S,4S,5R,6R)-2-Amino-3-[(3,4-dichlorobenzyl)oxy]-4-(1H-1,2,4-triazol-3-ylsulfanyl)bicyclo[3.1.0]hexane-2,6-dicarboxylic acid]", "values": [
      {"measurement": "inhibition at 12.5 µM", "setting": "human mGlu4 receptor", "value": 69, "unit": "%"},
      {"measurement": "inhibition at 12.5 µM", "setting": "human mGlu1 receptor", "value": 8.6, "unit": "%"},
      {"measurement": "IC50", "setting": "human mGlu3 receptors", "value": 7.8, "unit": "nM"},
      {"measurement": "inhibition at 12.5 µM", "setting": "human mGlu8 receptor", "value": 92.3, "unit": "%"},
      {"measurement": "IC50", "setting": "human mGlu8 receptor", "value": 507, "unit": "nM"}
    ]},
    {"smiles": "CC(=O)N[C@H]1[C@H]2[C@H](C(=O)O)[C@H]2[C@](N)(C(=O)O)[C@@H]1OCc1ccc(Cl)c(Cl)c1", "note": "[Example 4, (1S,2R,3R,4S,5R,6S)-4-(Acetylamino)-2-amino-3-[(3,4-dichlorobenzyl)oxy]bicyclo[3.1.0]hexane-2,6-dicarboxylic acid]", "values": [
      {"measurement": "inhibition at 12.5 µM", "setting": "human mGlu4 receptor", "value": 13.3, "unit": "%"},
      {"measurement": "inhibition at 12.5 µM", "setting": "human mGlu1 receptor", "value": -2, "unit": "%"},
      {"measurement": "IC50", "setting": "human mGlu3 receptors", "value": "8.2 ± 0.3", "unit": "nM"},
      {"measurement": "inhibition at 12.5 µM", "setting": "human mGlu8 receptor", "value": 23.4, "unit": "%"}
    ]},
    {"smiles": "Cl.Cn1cnc(S[C@H]2[C@H]3[C@H](C(=O)O)[C@H]3[C@](N)(C(=O)O)[C@@H]2OCc2ccc(Cl)c(Cl)c2)n1", "note": "[Example 7, (1R,2R,3S,4S,5R,6R)-2-Amino-3-[(3,4-dichlorophenyl)methoxy]-4-[(1-methyl-1,2,4-triazol-3-yl)sulfanyl]bicyclo[3.1.0]hexane-2,6-dicarboxylic acid hydrochloride.]", "values": [
      {"measurement": "inhibition at 12.5 µM", "setting": "human mGlu4 receptor", "value": 32.2, "unit": "%"},
      {"measurement": "inhibition at 12.5 µM", "setting": "human mGlu1 receptor", "value": 11.2, "unit": "%"},
      {"measurement": "IC50", "setting": "human mGlu3 receptors", "value": "34.8 ± 6.9", "unit": "nM"},
      {"measurement": "inhibition at 12.5 µM", "setting": "human mGlu8 receptor", "value": 46.7, "unit": "%"}
    ]},
    {"smiles": "Cl.N[C@]1(C(=O)O)[C@@H]2[C@@H](C(=O)O)[C@@H]2[C@H](NC(=O)CO)[C@H]1OCc1ccc(Cl)c(Cl)c1", "note": "[Example 9, (1S,2R,3R,4S,5R,6S)-2-Amino-3-[(3,4-dichlorobenzyl)oxy]-4-[(hydroxyacetyl)amino]bicyclo[3.1.0]hexane-2,6-dicarboxylic acid hydrochloride]", "values": [
      {"measurement": "inhibition at 12.5 µM", "setting": "human mGlu4 receptor", "value": 46.9, "unit": "%"},
      {"measurement": "inhibition at 12.5 µM", "setting": "human mGlu1 receptor", "value": 5, "unit": "%"},
      {"measurement": "IC50", "setting": "human mGlu3 receptors", "value": "4.4 ± 0.5", "unit": "nM"},
      {"measurement": "inhibition at 12.5 µM", "setting": "human mGlu8 receptor", "value": 13.3, "unit": "%"}
    ]}
  ]
}
